# Experiments:
# [1] = test system: human iPS cells (Ff-I01 strain); assay: Immunostaining of aggregate sections for retinal tissue marker Chx10; format: cell-based; settings: StemFit AK03N, day 19
# Description: Cell aggregates on day 16 after the start of suspension culturing were fixed with 4% para-formaldehyde to prepare frozen sections. These frozen sections were immunostained for Chx10 (anti-Chx10 antibody, Exalpha, sheep), which is one of the retinal tissue markers. These immunostained sections were observed under a fluorescence microscope.
# Cell aggregates on day 16 after the start of suspension culturing were fixed with 4% para-formaldehyde to prepare frozen sections. These frozen sections were immunostained for Chx10 (anti-Chx10 antibody, Exalpha, sheep), which is one of the retinal tissue markers, and observed under a fluorescence microscope. […] In addition, the proportion of Chx10-positive cells in the total cells is about 80% under conditions with the addition of BMP4 twice to maintain the final concentration of 5 nM (FIG. 23, D)
# The cell aggregates on day 19 after the start of suspension culturing were fixed with 4% para-formaldehyde to prepare frozen sections. These frozen sections were immunostained for Chx10 (anti-Chx10 antibody, Exalpha, sheep), which is one of the retinal tissue markers. These immunostained sections were observed under an inverted fluorescence microscope. As a result, the proportion of Chx10-positive cells in the total cells is about 70% under conditions with the addition of BMP4 twice to maintain the final concentration of 1.5 nM ([…]). In addition, the proportion of Chx10-positive cells in the total cells is about 90% under conditions with the addition of BMP4 twice to maintain the final concentration of 5 nM (FIG. 34, D).
# The thus-prepared cell aggregates on day 19 after the start of suspension culturing were fixed with 4% para-formaldehyde to prepare frozen sections. These frozen sections were immunostained for Chx10 (anti-Chx10 antibody, Exalpha, sheep), which is one of the retinal tissue markers, and observed under a fluorescence microscope.
# [2] = test system: human iPS cells (1231A3 strain); assay: Form of cell aggregate in suspension culturing, bright field observation (good / medium / bad form); format: cell-based; settings: for cell aggregates with a bad form (not spherical, collapsed) / cell aggregates with a good form (spherical, smooth surface and dense inside) / cell aggregates with a medium form (spherical, forming cyst): day 6
# Experimental: (§1) The above human iPS cells were treated with the cell dispersion solution by using TrypLE Select (Life Technologies), further dispersed into single cells by pipetting operation, and the above human iPS cells dispersed into single cells were suspended in 100 μl of a serum-free medium at 1.2×10^4 cells per well of a non-cell-adhesive 96-well culture plate (PrimeSurface 96V-bottom plate, manufactured by SUMITOMO BAKELITE), and subjected to suspension culturing at 37° C., 5% CO2. As the serum-free medium (gfCDM+KSR) therefor, a serum-free medium which is a 1:1 mixture of F-12 medium and IMDM medium supplemented with 10% KSR, 450 μM 1-monothioglycerol, and 1× Chemically defined lipid concentrate was used. At the time of the start of suspension culturing (day 0 after the start of suspension culturing, start of step 2), Y27632 (final concentration 20 μM) was added to the above serum-free medium. By day 2 after the start of suspension culturing, a cell aggregate was formed under both preconditioning conditions and conditions without preconditioning (step 2 completed, step 3 start). On day 3 after the start of suspension culturing, a serum-free medium (50 μl) free of Y27632 was added.
# The thus-prepared cells on day 6 after the start of suspension culturing were subjected to bright field observation under an inverted microscope (KEYENCE) (FIG. 3).
# Furthermore, bright field observation of the form of the cell aggregate on day 6 after the start of suspension culturing was performed under an inverted microscope, and the form was categorized into good form (FIG. 3C black bar, spherical, smooth surface and dense inside), medium form (FIG. 3 gray bar, spherical, forming cyst), and bad form (FIG. 3C white bar, not spherical, collapsed) and quantified.
# as §1, with “μM 1-monothioglycerol, 1× Chemically” for “μM 1-monothioglycerol, and 1× Chemically”, “20 μM) and TGFβR inhibitor (SB431542, 5 μM) were added to” for “20 μM) was added to”, “of Y27632 and supplemented with a TGFβR inhibitor (SB431542, 5 μM) was added.” for “of Y27632 was added.”
# The form of the thus-prepared cell aggregates on day 6 after the start of suspension culturing was observed according to the method described in Example 3.
# The above human iPS cells were treated with the cell dispersion solution by using TrypLE Select (Life Technologies), further dispersed into single cells by pipetting operation, and the above human iPS cells dispersed into single cells were suspended in 100 μl of a serum-free medium at 1.2×10^4 cells per well of a non-cell-adhesive 96-well culture plate (PrimeSurface 96V-bottom plate, manufactured by SUMITOMO BAKELITE), and subjected to suspension culturing at 37° C., 5% CO2. As the serum-free medium (gfCDM+KSR) therefor, a serum-free medium which is a 1:1 mixture of F-12 medium and IMDM medium supplemented with 10% KSR, 450 μM 1-monothioglycerol and 1× Chemically defined lipid concentrate was used. […]
# [3] = SB431542 5 μM in step 1 and in step 2 and step 3
# [4] = no preconditioning in step 1, SB431542 5 μM added in step 2 and step 3
Structure (SMILES),"proportion of Chx10-positive cells in the total cells ([1]; SAG 300 nM for 48, 72 or 96 hr in step 1, SAG 500 nM in step 2, BMP4 1.5 nM)","proportion of Chx10-positive cells in the total cells ([1]; SAG 300 nM for 24 hr in step 1, SAG 500 nM in step 2, BMP4 1.5 nM)","shape of cell aggregate compared with no preconditioning ([2]; SB431542 5 μM 1 day in step 1, day 6 of suspension culturing)","cell aggregates with a bad form (not spherical, collapsed) [2, 3]","cell aggregates with a good form (spherical, smooth surface and dense inside) [2, 3]","cell aggregates with a medium form (spherical, forming cyst) [2, 3]","cell aggregates with a bad form (not spherical, collapsed) ([2]; SB431542 5 μM in step 1 only)","cell aggregates with a good form (spherical, smooth surface and dense inside) ([2]; SB431542 5 μM in step 1 only)","cell aggregates with a medium form (spherical, forming cyst) ([2]; SB431542 5 μM in step 1 only)","cell aggregates with a bad form (not spherical, collapsed) [2, 4]","cell aggregates with a good form (spherical, smooth surface and dense inside) [2, 4]","cell aggregates with a medium form (spherical, forming cyst) [2, 4]"
CNC1CCC(N(Cc2cccc(-c3ccncc3)c2)C(=O)c2sc3ccccc3c2Cl)CC1 (stereo not drawn) [SAG],about 80%,about 10%,–,–,–,–,–,–,–,–,–,–
"NC(=O)c1ccc(-c2nc(-c3ccc4c(c3)OCO4)c(-c3ccccn3)[nH]2)cc1 [SB431542, 4-(5-benzol[1,3]dioxol-5-yl-4-pyridin-2-yl-1H-imidazol-2-yl)-benzamide]",–,–,better shape,about 0%,about 100%,about 0%,about 0%,about 100%,about 0%,about 30%,about 10%,about 60%

# From patent US12492373B2, “Production method for nerve tissue” (Racthera Co., Ltd., priority 2014, dated 2025)
